Assay type in all cases: functional
For assay [1], the system named is Hanseniaspora guilliermondii. The experiment in a line: Antifungal activity against Hanseniaspora guilliermondii DSM 3432 at 10 ug after 72 hrs by disk diffusion method. Conditions: DSM 3432, 72 h, read-out: IZ. A general note: Agar diffusion results depend on both activity and mobility in agar.
Assay [2] concerns Rhodotorula mucilaginosa. As to the kind of experiment: Antifungal activity against Rhodotorula rubra DSM 70403 at 10 ug after 72 hrs by disk diffusion method. The following applies: DSM 70403, 72 h, read-out: IZ.
Assay [3] concerns Kluyveromyces marxianus. The experiment in a line: Antifungal activity against Kluyveromyces fragilis NRRL 2415 at 10 ug after 72 hrs by disk diffusion method. Conditions: NRRL 2415, 72 h, read-out: IZ.
The test system of assay [4] is Candida albicans. The experiment in a line: Antifungal activity against Candida albicans ATCC 10231 at 10 ug after 72 hrs by disk diffusion method. The following applies: ATCC 10231, 72 h, read-out: IZ.
The test system of assay [5] is Debaryomyces hansenii. The experiment in a line: Antifungal activity against Debaryomyces hansenii DSM 70238 at 10 ug after 72 hrs by disk diffusion method. Conditions: DSM 70238, 72 h, read-out: IZ.
Another assay relates to Listeria monocytogenes. The experiment in a line: Antibacterial activity against Listeria monocytogenes ATCC 15313 at 5 ug after 24 hrs by disk diffusion method. Conditions: ATCC 15313, 24 h, read-out: IZ.
The next assay has as its system Micrococcus luteus. As to the kind of experiment: Antibacterial activity against Micrococcus luteus La 2971 at 5 ug by disk diffusion method. Conditions: read-out: IZ.
The subject of assay [6] is Mycolicibacterium smegmatis. As to the kind of experiment: Antibacterial activity against Mycobacterium smegmatis CCM 2067 at 5 ug after 24 hrs by disk diffusion method. The following applies: CCM 2067, 24 h, read-out: IZ.
For another assay, the system named is Bacillus cereus. The experiment in a line: Antibacterial activity against Bacillus cereus ATCC 7064 at 5 ug after 24 hrs by disk diffusion method. Conditions: ATCC 7064, 24 h, read-out: IZ.
In another assay the test system is Staphylococcus aureus. As to the kind of experiment: Antibacterial activity against Staphylococcus aureus ATCC 6538 at 5 ug after 24 hrs by disk diffusion method. The following applies: ATCC 6538, 24 h, read-out: IZ.
Another assay concerns Escherichia coli. The experiment in a line: Antibacterial activity against Escherichia coli ATCC 11230 at 5 ug after 24 hrs by disk diffusion method. Conditions: ATCC 11230, 24 h, read-out: IZ.
In the next assay the test system is Pseudomonas aeruginosa. The experiment in a line: Antibacterial activity against Pseudomonas aeruginosa ATCC 27853 at 5 ug after 24 hrs by disk diffusion method. The following applies: ATCC 27853, 24 h, read-out: IZ.
Another assay relates to Proteus vulgaris. The experiment in a line: Antibacterial activity against Proteus vulgaris ATCC 8427 at 5 ug after 24 hrs by disk diffusion method. Conditions: ATCC 8427, 24 h, read-out: IZ.
The next assay concerns Klebsiella pneumoniae. The experiment in a line: Antibacterial activity against Klebsiella pneumoniae UC57 at 5 ug after 24 hrs by disk diffusion method. The following applies: read-out: IZ.
Assay [7] deals with Kluyveromyces marxianus. The experiment in a line: Antifungal activity against Kluyveromyces fragilis NRRL 2415 at 20 ug after 72 hrs by disk diffusion method. Conditions: NRRL 2415, 72 h, read-out: IZ.
The test system of assay [8] is Candida albicans. As to the kind of experiment: Antifungal activity against Candida albicans ATCC 10231 at 20 ug after 72 hrs by disk diffusion method. Conditions: ATCC 10231, 72 h, read-out: IZ.
Assay [9] has as its system Rhodotorula mucilaginosa. As to the kind of experiment: Antifungal activity against Rhodotorula rubra DSM 70403 at 20 ug after 72 hrs by disk diffusion method. The following applies: DSM 70403, 72 h, read-out: IZ.
Assay [10] relates to Hanseniaspora guilliermondii. As to the kind of experiment: Antifungal activity against Hanseniaspora guilliermondii DSM 3432 at 20 ug after 72 hrs by disk diffusion method. The following applies: DSM 3432, 72 h, read-out: IZ.
Assay [11] concerns Debaryomyces hansenii. As to the kind of experiment: Antifungal activity against Debaryomyces hansenii DSM 70238 at 20 ug after 72 hrs by disk diffusion method. Conditions: DSM 70238, 72 h, read-out: IZ.

With `Clc1ccccc1C(c1ccccc1)(c1ccccc1)n1ccnc1` [CLOTRIMAZOLE], the zone of inhibition at 10 µg/disc in [1] stood at 22 mm; with Rhodotorula mucilaginosa [2], 16 mm; in the assay on Kluyveromyces marxianus [3], 18 mm; in the assay with Candida albicans [4], 15 mm; in the assay with Debaryomyces hansenii [5] it was 18 mm.

Turning to `CC1COc2c(N3CCN(C)CC3)c(F)cc3c(=O)c(C(=O)O)cn1c23` (centres undefined) [OFLOXACIN], the zone of inhibition at 5 µg/disc with Listeria monocytogenes was determined as 30 mm; in the assay on Micrococcus luteus it was 28 mm; in [6], 32 mm; in the assay with Bacillus cereus it was 30 mm; in the assay with Staphylococcus aureus, 24 mm; in the assay on Escherichia coli, 30 mm. The zone of inhibition at 5 µg/disc in the assay on Pseudomonas aeruginosa was 44 mm; in the assay with Proteus vulgaris, 28 mm; in the assay with Klebsiella pneumoniae it was 28 mm.

On to `CC(=O)N1CCN(c2ccc(OCC3COC(Cn4ccnc4)(c4ccc(Cl)cc4Cl)O3)cc2)CC1` (centres undefined) [KETOCONAZOLE], for which the zone of inhibition at 20 µg/disc in the assay on Kluyveromyces marxianus [7] came out at 16 mm; with Candida albicans [8] it was 21 mm; with Rhodotorula mucilaginosa [9], 22 mm; in assay [10] it was 24 mm; with Debaryomyces hansenii [11] it was 14 mm.

(Values after ChEMBL document CHEMBL1147899, “Raman, FT-IR, NMR spectroscopic data and antimicrobial activity of bis[micro2-(benzimidazol-2-yl)-2-ethanethiolato-N,S,S-chloro-palladium(II)] dimer, [(micro2-CH2CH2NHNCC6H4)PdCl]2.C2H5OH complex” (2007).)
